31 compounds from patent publication US7777047B2, “Indole compound” (Takeda Pharmaceutical Company Limited, priority 2006, dated 2010) can be followed below.

Some results are limits rather than exact numbers.

As a reminder, the melting point is the temperature of the solid-liquid transition.

With `Cc1ccc(N(C)S(=O)(=O)c2cccs2)c2[nH]c(-c3ncc(CN4CCC(O)C4)s3)cc12` (stereo not shown) [Example 251, N-(2-{5-[(3-hydroxypyrrolidin-1-yl)methyl]-1,3-thiazol-2-yl}-4-methyl-1H-indol-7-yl)-N-methylthiophene-2-sulfonamide], the melting point lay in the range of 190 to 191 °C.

`CCOC(=O)CC1CN=C(c2cc3cccc(N(C)S(=O)(=O)c4cccs4)c3[nH]2)S1` (stereo not shown) [Example 283, ethyl (2-{7-[methyl(2-thienylsulfonyl)amino]-1H-indol-2-yl}-4,5-dihydro-1,3-thiazol-5-yl)acetate] showed a melting point of 101 to 102 °C.

The compound `CN(c1cccc2cc(C3=NCC(CC(=O)O)S3)[nH]c12)S(=O)(=O)c1cccs1` (stereo not shown) [Example 284, (2-{7-[methyl(2-thienylsulfonyl)amino]-1H-indol-2-yl}-4,5-dihydro-1,3-thiazol-5-yl)acetic acid] showed a melting point of 232 to 234 °C.

For `CN(c1cccc2cc(C3=NCC(CCO)S3)[nH]c12)S(=O)(=O)c1cccs1` (stereo not shown) [Example 285, N-{2-[5-(2-hydroxyethyl)-4,5-dihydro-1,3-thiazol-2-yl]-1H-indol-7-yl}-N-methylthiophene-2-sulfonamide], the melting point lay within 174 to 175 °C. For the compound `CN1CCN(C(=O)CC2CN=C(c3cc4cccc(N(C)S(=O)(=O)c5cccs5)c4[nH]3)S2)CC1` (stereo not shown) [Example 286, N-methyl-N-(2-{5-[2-(4-methylpiperazin-1-yl)-2-oxoethyl]-4,5-dihydro-1,3-thiazol-2-yl}-1H-indol-7-yl)thiophene-2-sulfonamide], the melting point lay within 151 to 153 °C. Under `CN(c1cccc2cc(C3=NCC(CC(N)=O)S3)[nH]c12)S(=O)(=O)c1cccs1` (stereo not shown) [Example 287, 2-(2-{7-[methyl(2-thienylsulfonyl)amino]-1H-indol-2-yl}-4,5-dihydro-1,3-thiazol-5-yl)acetamide] stands 193 to 194 °C. Under `CN(c1cccc2cc(C3=NCC(CCN4C(=O)CCC4=O)S3)[nH]c12)S(=O)(=O)c1cccs1` (stereo not shown) [Example 288, N-(2-{5-[2-(2,5-dioxopyrrolidin-1-yl)ethyl]-4,5-dihydro-1,3-thiazol-2-yl}-1H-indol-7-yl)-N-methylthiophene-2-sulfonamide] stands 189 to 191 °C; under `CCOC(=O)CC1CN=C(c2cc3c(C)ccc(N(C)S(=O)(=O)c4cccs4)c3[nH]2)S1` (stereo not shown) [Example 290, ethyl (2-{4-methyl-7-[methyl(2-thienylsulfonyl)amino]-1H-indol-2-yl}-4,5-dihydro-1,3-thiazol-5-yl)acetate], 109 to 110 °C. The same measure for `Cc1ccc(N(C)S(=O)(=O)c2cccs2)c2[nH]c(C3=NCC(CCO)S3)cc12` (stereo not shown) [Example 291, N-{2-[5-(2-hydroxyethyl)-4,5-dihydro-1,3-thiazol-2-yl]-4-methyl-1H-indol-7-yl}-N-methylthiophene-2-sulfonamide]: 168 to 169 °C; for `Cc1ccc(N(C)S(=O)(=O)c2cccs2)c2[nH]c(C3=NCC(CC(=O)O)S3)cc12` (stereo not shown) [Example 292, (2-{4-methyl-7-[methyl(2-thienylsulfonyl)amino]-1H-indol-2-yl}-4,5-dihydro-1,3-thiazol-5-yl)acetic acid]: 269 to 270 °C; for `Cc1ccc(N(C)S(=O)(=O)c2cccs2)c2[nH]c(C3=NCC(CC(N)=O)S3)cc12` (stereo not shown) [Example 293, 2-(2-{4-methyl-7-[methyl(2-thienylsulfonyl)amino]-1H-indol-2-yl}-4,5-dihydro-1,3-thiazol-5-yl)acetamide]: 120 to 121 °C. `CN(C)C(=O)CC1CN=C(c2cc3cccc(N(C)S(=O)(=O)c4cccs4)c3[nH]2)S1` (stereo not shown) [Example 294, N,N-dimethyl-2-(2-{7-[methyl(2-thienylsulfonyl)amino]-1H-indol-2-yl}-4,5-dihydro-1,3-thiazol-5-yl)acetamide] came in with a melting point of 153 to 154 °C.

Compound `O=S(=O)(Nc1cccc2cc(C3=NCC(CCO)S3)[nH]c12)c1cccs1` (stereo not shown) [Example 295, N-{2-[5-(2-hydroxyethyl)-4,5-dihydro-1,3-thiazol-2-yl]-1H-indol-7-yl}thiophene-2-sulfonamide] showed a melting point of 156 to 158 °C.

As to `O=C(O)CC1CN=C(c2cc3cccc(NS(=O)(=O)c4cccs4)c3[nH]2)S1` (stereo not shown) [Example 296, (2-{7-[(2-thienylsulfonyl)amino]-1H-indol-2-yl}-4,5-dihydro-1,3-thiazol-5-yl)acetic acid], the melting point was > 240 °C (dec.). The same measure for `NC(=O)CC1CN=C(c2cc3cccc(NS(=O)(=O)c4cccs4)c3[nH]2)S1` (stereo not shown) [Example 297, 2-(2-{7-[(2-thienylsulfonyl)amino]-1H-indol-2-yl}-4,5-dihydro-1,3-thiazol-5-yl)acetamide]: 130 to 131 °C. For the compound `CON(C)C(=O)CC1CN=C(c2cc3cccc(N(C)S(=O)(=O)c4cccs4)c3[nH]2)S1` (stereo not shown) [Example 299, N-methoxy-N-methyl-2-(2-{7-[methyl(2-thienylsulfonyl)amino]-1H-indol-2-yl}-4,5-dihydro-1,3-thiazol-5-yl)acetamide], the melting point was 153 to 154 °C. The same measure for `CC(=O)CC1CN=C(c2cc3cccc(N(C)S(=O)(=O)c4cccs4)c3[nH]2)S1` (stereo not shown) [Example 300, N-methyl-N-{2-[5-(2-oxopropyl)-4,5-dihydro-1,3-thiazol-2-yl]-1H-indol-7-yl}thiophene-2-sulfonamide]: 123 to 124 °C; for `C=CC(=O)CC1CN=C(c2cc3cccc(N(C)S(=O)(=O)c4cccs4)c3[nH]2)S1` (stereo not shown) [Example 301, N-methyl-N-{2-[5-(2-oxobut-3-en-1-yl)-4,5-dihydro-1,3-thiazol-2-yl]-1H-indol-7-yl}thiophene-2-sulfonamide]: 157 to 158 °C. For the compound `CN1CCC(CC2CN=C(c3cc4cccc(N(C)S(=O)(=O)c5cccs5)c4[nH]3)S2)=N1` (stereo not shown) [Example 302, N-methyl-N-(2-{5-[(1-methyl-4,5-dihydro-1H-pyrazol-3-yl)methyl]-4,5-dihydro-1,3-thiazol-2-yl}-1H-indol-7-yl)thiophene-2-sulfonamide], the melting point is 149 to 150 °C. For `CN(c1cccc2cc(C3=NCC(CN4CCSCC4)S3)[nH]c12)S(=O)(=O)c1ccccn1` (stereo not shown) [Example 303, N-methyl-N-{2-[5-(thiomorpholinomethyl)-4,5-dihydro-1,3-thiazol-2-yl]-1H-indol-7-yl}pyridine-2-sulfonamide], the melting point lay in the range of 142 to 144 °C.

Consider `CN(c1cccc2cc(C3=NCC(CN4CC[S+]([O-])CC4)S3)[nH]c12)S(=O)(=O)c1ccccn1` (stereo not shown) [Example 304, N-methyl-N-(2-{5-[(1-oxidothiomorpholino)methyl]-4,5-dihydro-1,3-thiazol-2-yl}-1H-indol-7-yl)pyridine-2-sulfonamide], for which the melting point lay within 193 to 194 °C. Take `COc1ccccc1S(=O)(=O)N(C)c1cccc2cc(C3=NCC(CCO)S3)[nH]c12` (stereo not shown) [Example 306, N-{2-[5-(2-hydroxyethyl)-4,5-dihydro-1,3-thiazol-2-yl]-1H-indol-7-yl}-2-methoxy-N-methylbenzenesulfonamide]: the melting point fell in the range of 154 to 155 °C. `COc1ccccc1S(=O)(=O)N(C)c1cccc2cc(C3=NCC(CC(=O)O)S3)[nH]c12` (stereo not shown) [Example 307, (2-{7-[[(2-methoxyphenyl)sulfonyl](methyl)amino]-1H-indol-2-yl}-4,5-dihydro-1,3-thiazol-5-yl)acetic acid] returned a melting point of 197 to 198 °C. Turning to `COc1ccccc1S(=O)(=O)N(C)c1cccc2cc(C3=NCC(CC(N)=O)S3)[nH]c12` (stereo not shown) [Example 308, 2-(2-{7-[[(2-methoxyphenyl)sulfonyl](methyl)amino]-1H-indol-2-yl}-4,5-dihydro-1,3-thiazol-5-yl)acetamide], the melting point was in the range of 227 to 228 °C. With `COc1ccccc1S(=O)(=O)N(C)c1cccc2cc(C3=NCC(CC(=O)Nc4nnc[nH]4)S3)[nH]c12` (stereo not shown) [Example 310, 2-(2-{7-[[(2-methoxyphenyl)sulfonyl](methyl)amino]-1H-indol-2-yl}-4,5-dihydro-1,3-thiazol-5-yl)-N-4H-1,2,4-triazol-3-ylacetamide], the melting point was in the range of 208 to 209 °C. The same measure for `COc1ccccc1S(=O)(=O)N(C)c1cccc2cc(C3=NCC(CC(=O)N4CCC(O)CC4)S3)[nH]c12` (stereo not shown) [Example 311, N-(2-{5-[2-(4-hydroxypiperidino)-2-oxoethyl]-4,5-dihydro-1,3-thiazol-2-yl}-1H-indol-7-yl)-2-methoxy-N-methylbenzenesulfonamide]: 166 to 167 °C; for `CN(c1cccc2cc(C3=NCC(CC(=O)O)S3)[nH]c12)S(=O)(=O)c1ccccc1C(F)(F)F` (stereo not shown) [Example 314, {2-[7-(methyl{[2-(trifluoromethyl)phenyl]sulfonyl}amino)-1H-indol-2-yl]-4,5-dihydro-1,3-thiazol-5-yl}acetic acid]: 170 to 172 °C; for `CN(c1cccc2cc(C3=NCC(CCO)S3)[nH]c12)S(=O)(=O)c1ccccc1C(F)(F)F` (stereo not shown) [Example 315, N-{2-[5-(2-hydroxyethyl)-4,5-dihydro-1,3-thiazol-2-yl]-1H-indol-7-yl}-N-methyl-2-(trifluoromethyl)benzenesulfonamide]: 153 to 154 °C. Consider `CN(c1cccc2cc(C3=NCC(CC(=O)N4CCC[C@H]4C(=O)O)S3)[nH]c12)S(=O)(=O)c1ccccc1C(F)(F)F` (stereo partly drawn) [Example 316, 1-({2-[7-(methyl{[2-(trifluoromethyl)phenyl]sulfonyl}amino)-1H-indol-2-yl]-4,5-dihydro-1,3-thiazol-5-yl}acetyl)-L-proline], for which the melting point was 132 to 135 °C. The same measure for `CN(c1cccc2cc(C3=NCC(CN4CCS(=O)(=O)CC4)S3)[nH]c12)S(=O)(=O)c1ccccn1` (stereo not shown) [Example 318, N-(2-{5-[(1,1-dioxidothiomorpholino)methyl]-4,5-dihydro-1,3-thiazol-2-yl}-1H-indol-7-yl)-N-methylpyridine-2-sulfonamide]: 188 to 189 °C; for `CN(c1cccc2cc(C3=NCC(CN4CC[S+]([O-])CC4)S3)[nH]c12)S(=O)(=O)c1nccn1C` (stereo not shown) [Example 320, N,1-dimethyl-N-(2-{5-[(1-oxidothiomorpholino)methyl]-4,5-dihydro-1,3-thiazol-2-yl}-1H-indol-7-yl)-1H-imidazole-2-sulfonamide]: 161 to 162 °C.
